The results in this text go back to paper PMC12977469, “Ligand binding drives proteolysis of the SmcR master transcription factor and controls quorum sensing-state transitions in Vibrio species” (mBio, 2026).

This assay concerns the target T1, SmcR (Vibrio vulnificus, UniProt Q9L8G8).
T1 construct: full-length, His-tagged SmcR (homodimer); residues 1–15 not modeled in the crystal structure
Put plainly: X-ray crystal structure ([…] Å) and isothermal titration calorimetry with purified protein; SAXS. The class given is binding. Background: ITC needs no label: the signal is the heat of the interaction.

T1 sequence (Q9L8G8 entry or part of it): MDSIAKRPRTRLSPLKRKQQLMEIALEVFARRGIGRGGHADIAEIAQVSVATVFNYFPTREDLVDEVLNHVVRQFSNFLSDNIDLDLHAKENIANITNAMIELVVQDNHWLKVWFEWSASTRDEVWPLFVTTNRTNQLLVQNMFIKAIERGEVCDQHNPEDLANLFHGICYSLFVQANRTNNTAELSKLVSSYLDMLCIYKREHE

Broadly, the Kd is the free concentration of one partner at which half of the binding sites on the other are occupied at equilibrium, for simple one-to-one binding. A high value points to a looser complex. The compound `O=S(=O)(c1cccs1)n1ccc(-c2ccccc2)n1` [PTSP, 3-phenyl-1-(thiophen-2-ylsulfonyl)-1H-pyrazole] had a Kd of around 1000 nM.
